Assay results from patent publication US9145351B2, “Azole derivatives, methods for producing the same, intermediate thereof, agro-horticultural agents” (KUREHA CORPORATION, priority 2009, dated 2015).
Read-outs that look alike come from different tables or passages of the source.

Legend:
[1] = system: Fusarium oxysporum; experiment: Plate medium fungicidal assay, cucumber fusarium wilt F.c (Experimental Example 5); format: cell-based; conditions: Fusarium oxysporum
Method: In this Experimental Example, the fungicidal effects of the inventive compounds on various phytopathogenic fungi for plants and hazardous microorganism for industrial materials were examined by the methods described below. Each inventive compound was dissolved in 2 ml of dimethyl sulfoxide. 0.6 ml of this solution was added to 60 nil of a PDA medium (potato dextrose agar medium) at about 60 degrees C., which was mixed thoroughly in a 100-ml conical flask, and poured into a dish, where it was solidified, thereby obtaining a plate medium containing the inventive compound at 50 mg/L and 5 mg/L. On the other hand, a subject microorganism previously cultured on a plate medium was cut out using a cork borer whose diameter was 4 mm, and inoculated to the test compound-containing plate medium described above. […] The growth degree of the microorganism on the test compound-containing plate medium thus observed was compared with the growth degree of the microorganism in the untreated group, and % mycelial growth inhibition was calculated by the following equation. R=100(dc−dt)/dc wherein R=% mycelial extension inhibition, dc=flora diameter in untreated plate, dt=flora diameter in treated plate. The results obtained as described above were evaluated as one of the 5 grades according to the following criteria. […] Cucumber fusarium wilt (Fusarium oxysporum) F.c

[2] = system: Cladosporium sp.; experiment: Plate medium assay, industrial material deteriorating microorganism, Cladosporium (Experimental Example 5); format: cell-based; conditions: treatment at 50 mg/l, PDA plate medium, read-out: growth inhibition grade
Method: (§1) In this Experimental Example, the fungicidal effects of the inventive compounds on various phytopathogenic fungi for plants and hazardous microorganism for industrial materials were examined by the methods described below. Each inventive compound was dissolved in 2 ml of dimethyl sulfoxide. 0.6 ml of this solution was added to 60 nil of a PDA medium (potato dextrose agar medium) at about 60 degrees C., which was mixed thoroughly in a 100-ml conical flask, and poured into a dish, where it was solidified, thereby obtaining a plate medium containing the inventive compound at 50 mg/L and 5 mg/L. On the other hand, a subject microorganism previously cultured on a plate medium was cut out using a cork borer whose diameter was 4 mm, and inoculated to the test compound-containing plate medium described above. […] The growth degree of the microorganism on the test compound-containing plate medium thus observed was compared with the growth degree of the microorganism in the untreated group, and % mycelial growth inhibition was calculated by the following equation. R=100(dc-dt)/dc wherein R=% mycelial extension inhibition, dc=flora diameter in untreated plate, dt=flora diameter in treated plate. The results obtained as described above were evaluated as one of the 5 grades according to the following criteria.

[3] = system: Alternaria alternata; experiment: Plate medium fungicidal assay, Alternaria blotch A.m (Experimental Example 5); format: cell-based; conditions: Alternaria alternata
Method: as §1, with “R=100(dc−dt)/dc” for “R=100(dc-dt)/dc”, “criteria. […] Alternaria blotch (Alternaria alternata) A.m” for “criteria.”

[4] = system: Phaeosphaeria nodorum; experiment: Plate medium fungicidal assay, wheat Septoria nodorum blotch P.n (Experimental Example 5); format: cell-based; conditions: Parastagonospora nodorum
Method: as §1, with “R=100(dc−dt)/dc” for “R=100(dc-dt)/dc”, “criteria. […] Wheat Septoria nodorum blotch (Phaeosphaeria nodorum) P.n” for “criteria.”

[5] = system: Penicillium sp.; experiment: Plate medium assay, industrial material deteriorating microorganism, Penicillium (Experimental Example 5); format: cell-based; conditions: treatment at 50 mg/l, PDA plate medium, read-out: growth inhibition grade
Method: as §1

[6] = system: Fusarium graminearum; experiment: whole plant or invertebrate; format: in vivo; conditions: in Triticum aestivum, 168 h, read-out: Protective value
[7] = system: Ustilago nuda; experiment: Plate medium fungicidal assay, barley loose smut U.n (Experimental Example 5); format: cell-based; conditions: Ustilago nuda
Method: as §1, with “R=100(dc−dt)/dc” for “R=100(dc-dt)/dc”, “criteria. […] Barley loose smut (Ustilago nuda) U.n” for “criteria.”

[8] = system: Trichoderma sp.; experiment: Plate medium assay, industrial material deteriorating microorganism, Trichoderma (Experimental Example 5); format: cell-based; conditions: treatment at 50 mg/l, PDA plate medium, read-out: growth inhibition grade
Method: as §1

[9] = plate medium, 5 mg/L, read-out: growth inhibition grade F.c
[10] = plate medium, 50 mg/L, read-out: growth inhibition grade F.c
[11] = plate medium, 5 mg/L, read-out: growth inhibition grade A.m
[12] = plate medium, 50 mg/L, read-out: growth inhibition grade A.m
[13] = plate medium, 5 mg/L, read-out: growth inhibition grade P.n
[14] = plate medium, 50 mg/L, read-out: growth inhibition grade P.n
[15] = plate medium, 5 mg/L, read-out: growth inhibition grade U.n
[16] = plate medium, 50 mg/L, read-out: growth inhibition grade U.n
[17] = plate medium containing compound at 5 mg/L, read-out: Growth inhibition grade, F.c
[18] = plate medium containing compound at 50 mg/L, read-out: Growth inhibition grade, F.c
[19] = plate medium containing compound at 5 mg/L, read-out: Growth inhibition grade, A.m
[20] = plate medium containing compound at 50 mg/L, read-out: Growth inhibition grade, A.m
[21] = plate medium containing compound at 5 mg/L, read-out: Growth inhibition grade, P.n
[22] = plate medium containing compound at 50 mg/L, read-out: Growth inhibition grade, P.n
[23] = plate medium containing compound at 5 mg/L, read-out: Growth inhibition grade, U.n
[24] = plate medium containing compound at 50 mg/L, read-out: Growth inhibition grade, U.n

| SMILES | inhibition at 5 µg/mL [1, 9] [%] | inhibition at 50 µg/mL [1, 10] [%] | inhibition at 50 µg/mL [2] [%] | inhibition at 5 µg/mL [3, 11] [%] | inhibition at 50 µg/mL [3, 12] [%] | inhibition at 5 µg/mL [4, 13] [%] | inhibition at 50 µg/mL [4, 14] [%] | inhibition at 50 µg/mL [5] [%] | pest or weed control at 100 µg/mL [6] [%] | pest or weed control at 500 µg/mL [6] [%] | inhibition at 5 µg/mL [7, 15] [%] | inhibition at 50 µg/mL [7, 16] [%] | inhibition at 50 µg/mL [8] [%] | other results |
| --- | --- | --- | --- | --- | --- | --- | --- | --- | --- | --- | --- | --- | --- | --- |
| C[C@]1(CBr)CC[C@@H](Cc2ccccc2)[C@]1(O)Cn1cncn1 (racemic) [Compound I-602, (1RS,2SR,5SR)-2-bromomethyl-5-benzyl-2-methyl-1-(1H-1,2,4-triazol-1-ylmethyl)cyclopentanol] | > 80 | > 80 | 60 to 80 | 60 to 80 | > 80 | 40 to 60 | > 80 | 60 to 80 | ≥ 80 | ≥ 90 | 60 to 80 | > 80 | 60 to 80 |  |
| C[C@]1(CCl)CC[C@H](Cc2ccc(Cl)cc2)[C@]1(O)Cn1cncn1 (racemic) [Compound I-301, (1RS,2SR,5RS)-5-(4-chlorobenzyl)-2-chloromethyl-2-methyl-1-[1,2,4]triazol-1-ylmethylcyclopentanol] | > 80 | > 80 | 60 to 80 | > 80 | > 80 | > 80 | > 80 | 60 to 80 |  | ≥ 90 | > 80 | > 80 | 60 to 80 |  |
| CC(Cl)=C[C@]1(C)CC[C@@H](Cc2ccc(Cl)cc2)[C@]1(O)Cn1cncn1 (racemic) [Compound I-115, (1RS,2SR,5SR)-5-(4-chlorobenzyl)-2-(2-chloropropenyl)-2-methyl-1-(1H-1,2,4-triazol-1-ylmethyl)cyclopentanol] | > 80 | > 80 | 60 to 80 | > 80 | > 80 | 60 to 80 | > 80 | 60 to 80 | ≥ 80 | ≥ 90 | 60 to 80 | > 80 | 60 to 80 |  |
| C[C@]1(CCl)CC[C@@H](Cc2cccc(Cl)c2)[C@]1(O)Cn1cncn1 (racemic) [Compound I-74, (1RS,2SR,5SR)-5-(3-chlorobenzyl)-2-chloromethyl-2-methyl-1-(1H-1,2,4-triazol-1-ylmethyl)cyclopentanol] |  |  | 60 to 80 |  |  |  |  | 60 to 80 | ≥ 80 | ≥ 90 |  |  | 60 to 80 | inhibition at 5 µg/mL [1, 17]: > 80%; inhibition at 50 µg/mL [1, 18]: > 80%; inhibition at 5 µg/mL [3, 19]: 60 to 80%; inhibition at 50 µg/mL [3, 20]: > 80%; inhibition at 5 µg/mL [4, 21]: > 80%; inhibition at 50 µg/mL [4, 22]: > 80%; inhibition at 5 µg/mL [7, 23]: > 80%; inhibition at 50 µg/mL [7, 24]: > 80% |
| C[C@]1(CCl)CC[C@@H](Cc2ccc(Cl)cc2)[C@]1(O)Cn1cncn1 (racemic) [Compound I-1, (1RS,2SR,5SR)-5-(4-chlorobenzyl)-2-chloromethyl-2-methyl-1-(1H-1,2,4-triazol-1-ylmethyl)cyclopentanol] | > 80 | > 80 | 60 to 80 | > 80 | > 80 | > 80 | > 80 | 60 to 80 | ≥ 80 | ≥ 90 | > 80 | > 80 | 60 to 80 | inhibition at 5 µg/mL [1, 17]: > 80%; inhibition at 50 µg/mL [1, 18]: > 80%; inhibition at 5 µg/mL [3, 19]: > 80%; inhibition at 50 µg/mL [3, 20]: > 80%; inhibition at 5 µg/mL [4, 21]: > 80%; inhibition at 50 µg/mL [4, 22]: > 80%; inhibition at 5 µg/mL [7, 23]: > 80%; inhibition at 50 µg/mL [7, 24]: > 80% |
| C[C@@]1(CCl)CC[C@H](Cc2ccc(Cl)cc2)[C@]1(O)Cn1cncn1 (racemic) [Compound I-401, (1RS,2RS,5RS)-5-(4-chlorobenzyl)-2-chloromethyl-2-methyl-1-[1,2,4]triazol-1-ylmethylcyclopentanol] | > 80 | > 80 | 60 to 80 | 60 to 80 | > 80 | > 80 | > 80 | 60 to 80 |  | ≥ 90 | 60 to 80 | > 80 | 60 to 80 |  |
| C[C@]1(CBr)CC[C@@H](Cc2ccc(F)cc2)[C@]1(O)Cn1cncn1 (racemic) [Compound I-601, (1RS,2SR,5SR)-2-bromomethyl-5-(4-fluorobenzyl)-2-methyl-1-(1H-1,2,4-triazol-1-ylmethyl)cyclopentanol] | > 80 | > 80 | 60 to 80 | 60 to 80 | > 80 | 60 to 80 | > 80 | 60 to 80 | ≥ 80 | ≥ 90 | 40 to 60 | > 80 | 60 to 80 |  |
